Data on 16 molecules can be found in patent US20260000676A1, “CHROMAN DERIVATIVES AS ESTROGEN RECEPTOR DEGRADERS” (THE REGENTS OF THE UNIVERSITY OF MICHIGAN, priority 2022, published 2026).

The target of assay [1] is T1, ER (Homo sapiens (Human), UniProt P03372). The assay is described as follows: In-cell western (ICW) ER degradation assay in MCF-7 cells. In kind it is cell-based. To be noted: MCF7, 16 hrs; for DC50: ER degradation; for Dmax: MCF7, maximal ER degradation; for MCF7 Dmax %: maximal ER degradation.
T1 sequence (P03372 whole entry): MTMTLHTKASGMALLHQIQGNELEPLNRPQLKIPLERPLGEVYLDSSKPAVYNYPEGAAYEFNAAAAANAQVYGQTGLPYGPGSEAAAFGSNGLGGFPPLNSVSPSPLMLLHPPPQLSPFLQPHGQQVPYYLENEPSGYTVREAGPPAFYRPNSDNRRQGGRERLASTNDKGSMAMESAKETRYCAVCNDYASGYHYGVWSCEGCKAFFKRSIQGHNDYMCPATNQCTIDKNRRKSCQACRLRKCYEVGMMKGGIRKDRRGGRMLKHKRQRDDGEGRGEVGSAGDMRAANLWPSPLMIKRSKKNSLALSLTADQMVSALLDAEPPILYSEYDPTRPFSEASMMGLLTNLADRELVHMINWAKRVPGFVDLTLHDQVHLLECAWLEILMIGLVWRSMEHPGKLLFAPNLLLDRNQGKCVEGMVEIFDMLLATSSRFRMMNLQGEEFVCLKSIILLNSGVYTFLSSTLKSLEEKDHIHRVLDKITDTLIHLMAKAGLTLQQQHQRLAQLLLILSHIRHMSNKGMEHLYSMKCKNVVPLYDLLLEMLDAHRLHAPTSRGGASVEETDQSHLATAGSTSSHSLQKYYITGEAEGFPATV
For assay [2], the target named is T1, ER. The assay is described as follows: In-cell western (ICW) ER degradation assay in T47D cells. The following applies: 16 hrs; for DC50: ER degradation; for Dmax / T47D Dmax %: maximal ER degradation. In kind it is cell-based.
A further assay addresses CRBN/DDB1 (Homo sapiens (Human), UniProt Q96SW2). The assay is described as follows: HTRF binding assay to CRBN/DDB1. To be noted: read-out: CRBN HTRF IC50. As for the experimental part: The binding potency was determined using HTRF assay technology (Perkin Elmer). Compounds were serially diluted in DMSO and 0.2 μL volume was transferred to white 384-well plate.
(In TR-FRET formats the signal depends on donor and acceptor labels being close together.)

CRBN/DDB1, sequence (Q96SW2 whole entry): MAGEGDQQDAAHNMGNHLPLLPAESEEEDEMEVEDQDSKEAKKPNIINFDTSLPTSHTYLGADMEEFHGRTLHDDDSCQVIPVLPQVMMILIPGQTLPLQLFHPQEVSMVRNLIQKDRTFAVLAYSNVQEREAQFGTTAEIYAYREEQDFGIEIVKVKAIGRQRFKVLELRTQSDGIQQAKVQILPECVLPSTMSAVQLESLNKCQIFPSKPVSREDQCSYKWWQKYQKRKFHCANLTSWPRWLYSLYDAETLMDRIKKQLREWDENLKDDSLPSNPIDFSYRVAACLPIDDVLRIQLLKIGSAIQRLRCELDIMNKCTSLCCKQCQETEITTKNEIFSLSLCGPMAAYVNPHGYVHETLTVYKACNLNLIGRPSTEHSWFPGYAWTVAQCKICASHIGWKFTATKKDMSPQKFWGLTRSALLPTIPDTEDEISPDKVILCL
CRBN/DDB1, sequence (Q16531 whole entry partner): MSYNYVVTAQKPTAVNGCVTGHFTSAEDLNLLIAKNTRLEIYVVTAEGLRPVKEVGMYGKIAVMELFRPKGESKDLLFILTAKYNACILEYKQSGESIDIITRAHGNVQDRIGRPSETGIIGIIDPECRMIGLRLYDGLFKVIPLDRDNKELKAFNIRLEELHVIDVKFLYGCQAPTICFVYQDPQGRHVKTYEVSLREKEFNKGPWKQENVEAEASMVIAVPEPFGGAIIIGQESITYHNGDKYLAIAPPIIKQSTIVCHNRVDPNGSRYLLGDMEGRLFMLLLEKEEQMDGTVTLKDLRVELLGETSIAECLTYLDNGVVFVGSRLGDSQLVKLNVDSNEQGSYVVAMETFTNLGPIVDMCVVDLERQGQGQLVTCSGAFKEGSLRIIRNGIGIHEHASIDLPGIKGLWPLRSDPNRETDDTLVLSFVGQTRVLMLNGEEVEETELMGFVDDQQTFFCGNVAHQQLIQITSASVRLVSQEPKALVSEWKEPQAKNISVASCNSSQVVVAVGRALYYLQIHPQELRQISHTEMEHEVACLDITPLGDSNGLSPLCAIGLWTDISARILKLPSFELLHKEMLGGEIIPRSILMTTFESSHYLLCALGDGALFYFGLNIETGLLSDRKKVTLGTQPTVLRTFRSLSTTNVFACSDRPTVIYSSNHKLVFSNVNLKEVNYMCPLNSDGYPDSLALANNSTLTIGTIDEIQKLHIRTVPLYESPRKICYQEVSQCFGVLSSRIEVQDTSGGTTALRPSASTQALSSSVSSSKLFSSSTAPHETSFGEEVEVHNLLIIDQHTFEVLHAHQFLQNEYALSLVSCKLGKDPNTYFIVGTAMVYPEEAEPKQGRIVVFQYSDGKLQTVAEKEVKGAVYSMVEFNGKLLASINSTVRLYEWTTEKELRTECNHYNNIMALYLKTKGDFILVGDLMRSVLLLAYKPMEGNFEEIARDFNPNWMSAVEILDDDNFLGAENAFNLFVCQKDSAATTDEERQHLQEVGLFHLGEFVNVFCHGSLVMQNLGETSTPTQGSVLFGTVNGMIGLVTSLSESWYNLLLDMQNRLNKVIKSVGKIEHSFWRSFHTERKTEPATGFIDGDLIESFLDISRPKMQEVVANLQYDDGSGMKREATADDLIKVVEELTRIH

In the case of `COc1cc(N2CCC(CN3CCN4c5cc6c(cc5OC[C@H]4C3)C(=O)N(C3CCC(=O)NC3=O)C6)CC2)ccc1[C@H]1c2ccc(O)cc2OC[C@H]1c1ccccc1` (stereo partly drawn) [Compound A74, 3-((R)-3-((1-(4-((3R,4S)-7-hydroxy-3-phenylchroman-4-yl)-3-methoxyphenyl)piperidin-4-yl)methyl)-8-oxo-1,2,3,4,4a,5,8,10-octahydro-9H-pyrazino[1′,2′:4,5][1,4]oxazino[2,3-f]isoindol-9-yl)piperidine-2,6-dione], at ER [1], the 50% degradation concentration (DC50) (as a rule, the midpoint of the concentration-degradation curve) is below 1 nM and the Dmax (in general, the greatest extent of degradation seen) is below 25%. At ER [2], the 50% degradation concentration (DC50) is 1 to 10 nM and the Dmax is 25 to 50%. In addition, the IC50 (as a rule, the midpoint of a concentration-inhibition curve) on CRBN/DDB1 lay in the range of 500 to 5000 nM.
As to `O=C1CCN(c2ccc(N3CCC4(CC3)CC(CN3CCN(c5ccc([C@H]6c7ccc(O)cc7OC[C@H]6c6ccccc6)cc5)CC3)C4)cc2)C(=O)N1` (single isomer, unassigned) [Compound A107], on ER [1], the DC50 is 1 to 10 nM and the Dmax was in the range of 25 to 50%. Besides, at ER [2], the 50% degradation concentration (DC50) was below 1 nM and the Dmax lay within 25 to 50%. The IC50 on CRBN/DDB1 was above 5000 nM.
On ER [1], `O=C1CCC(Nc2ccc(C3CCN(CC4CCN(c5ccc([C@@H]6c7ccc(O)cc7OC[C@@H]6c6ccccc6)cc5)CC4)CC3)c(F)c2)C(=O)N1` (single isomer, unassigned) [Compound A72] yielded a 50% degradation concentration (DC50) above 100 nM and a Dmax below 25%. Moreover, at ER [2], the 50% degradation concentration (DC50) was below 1 nM and the maximal degradation (Dmax) lay within 25 to 50%. The IC50 at CRBN/DDB1 was in the range of 50 to 500 nM.
As to `COc1cc(N2CCC3(CC2)CC(CN2CCC4(CC2)COc2c4ccc4c2CN(C2CCC(=O)NC2=O)C4=O)C3)c(F)cc1[C@H]1c2ccc(O)cc2OC[C@H]1c1ccccc1` (stereo partly drawn) [Compound A131, 3-(1′-((7-(2-fluoro-4-((3R,4R)-7-hydroxy-3-phenylchroman-4-yl)-5-methoxyphenyl)-7-azaspiro[3.5]nonan-2-yl)methyl)-6-oxo-6,8-dihydro-2H,7H-spiro[furo[2,3-e]isoindole-3,4′-piperidin]-7-yl)piperidine-2,6-dione], on ER [1], the 50% degradation concentration (DC50) lay in the range of 1 to 10 nM; the “MCF7 Dmax %” value was “B (“B”: >50% and <75%)”. Moreover, at ER [2], the DC50 lay in the range of 1 to 10 nM; the “T47D Dmax %” value was “B (“B”: >50% and <75%)”. Besides, at CRBN/DDB1, the IC50 is below 50 nM.
As to `O=C1CCC(N2Cc3cc(N4CCN(CC5CC6(CCN(c7ccc([C@@H]8c9ccc(O)cc9OC[C@@H]8c8ccccc8)cn7)CC6)C5)CC4)ccc3C2=O)C(=O)N1` (single isomer, unassigned) [Compound A67], at ER [1], the half-maximal degradation concentration (DC50) is above 100 nM and the “MCF7 Dmax %” value is “D (“D”; <25%)”. On ER [2], the DC50 lay in the range of 10 to 100 nM and the “T47D Dmax %” value was “D (“D”; <25%)”. Also, at CRBN/DDB1, the IC50 was 50 to 500 nM.
At ER [1], `O=C1CCC(NC(=O)c2ccc3c(n2)OC[C@H]2CN(CC4CC5(CCN(c6ccc([C@@H]7c8ccc(O)cc8OC[C@@H]7c7ccccc7)cc6)CC5)C4)CCN32)C(=O)N1` (stereo partly drawn) [Compound A93, (4aR)-N-(2,6-dioxopiperidin-3-yl)-3-((7-(4-((3S,4R)-7-hydroxy-3-phenylchroman-4-yl)phenyl)-7-azaspiro[3.5]nonan-2-yl)methyl)-1,2,3,4,4a,5-hexahydropyrazino[1,2-d]pyrido[2,3-b][1,4]oxazine-8-carboxamide] displayed a half-maximal degradation concentration (DC50) of 1 to 10 nM and a Dmax of 50 to 75%. At ER [2], this molecule yielded a 50% degradation concentration (DC50) below 1 nM and a Dmax of 50 to 75%. Further, the IC50 on CRBN/DDB1 was 500 to 5000 nM.
As for `CC(C(=O)N1Cc2cc3c(cc2C1)C(=O)N(C1CCC(=O)NC1=O)C3=O)N1CCC2(CCN(c3ccc([C@H]4c5ccc(O)cc5OC[C@H]4c4ccccc4)cc3)CC2)CC1` (single isomer, unassigned) [Compound A57], at ER [1], the half-maximal degradation concentration (DC50) is above 100 nM and the Dmax is below 25%. Besides, at ER [2], the DC50 is above 100 nM and the Dmax is below 25%. For the same molecule, on CRBN/DDB1, the concentration for half-maximal inhibition (IC50) was above 5000 nM.
Regarding `COc1cc(N2CCC(CN3CCC4(CC3)COc3cc5c(cc34)CN(C3CCC(=O)NC3=O)C5=O)CC2)ccc1[C@H]1c2ccc(O)cc2OC[C@H]1c1ccccc1` (stereo partly drawn) [Compound A136, 3-(1′-((1-(4-((3R,4S)-7-hydroxy-3-phenylchroman-4-yl)-3-methoxyphenyl)piperidin-4-yl)methyl)-7-oxo-5,7-dihydro-2H,6H-spiro[furo[2,3-f]isoindole-3,4′-piperidin]-6-yl)piperidine-2,6-dione], the half-maximal degradation concentration (DC50) at ER [1] and on ER [2] was below 1 nM in each case. Further, the maximal degradation (Dmax) on ER [1] and at ER [2] was 50 to 75% throughout. Also, the half-inhibitory concentration (IC50) at CRBN/DDB1 was below 50 nM.
In the case of `COc1cc(N2CCC(CN3CCN(c4ccc(C(=O)NC5CCC(=O)NC5=O)nc4)CC3)CC2)ccc1[C@H]1c2ccc(O)cc2OC[C@H]1c1ccccc1` (single isomer, unassigned) [Compound A124], the DC50 at ER [1] and at ER [2] was below 1 nM in each case. Further, the greatest degradation seen (Dmax) on ER [1] and on ER [2] was 50 to 75% in each case. Besides, the IC50 on CRBN/DDB1 is above 5000 nM.
On ER [1], `O=C1CCC(Nc2ccc(C34CCN(CC5COC6(CCN(c7ccc([C@H]8c9ccc(O)cc9OC[C@H]8c8ccccc8)cc7F)CC6)C5)CC3C4(F)F)cc2)C(=O)N1` (stereo partly drawn) [Compound A156, 3-((4-(7,7-difluoro-3-(((R)-8-(2-fluoro-4-((3R,4S)-7-hydroxy-3-phenylchroman-4-yl)phenyl)-1-oxa-8-azaspiro[4.5]decan-3-yl)methyl)-3-azabicyclo[4.1.0]heptan-6-yl)phenyl)amino)piperidine-2,6-dione] returned a DC50 above 100 nM and a Dmax below 25%. Further, on ER [2], the DC50 was below 1 nM and the maximal degradation (Dmax) lay in the range of 25 to 50%. The half-maximal inhibitory concentration (IC50) on CRBN/DDB1 lay in the range of 500 to 5000 nM.
At ER [1], `O=C1CC[C@@H](Nc2ccc(C3CCN(C[C@@H]4COC5(CCN(c6ccc([C@H]7c8ccc(O)cc8OC[C@H]7c7ccccc7)cc6)CC5)C4)CC3)c(F)c2)C(=O)N1` (mixture of isomers) [Compound A162, 3-((3-fluoro-4-(1-(((R)-8-(4-((3RS, 4SR)-7-hydroxy-3-phenylchroman-4-yl)phenyl)-1-oxa-8-azaspiro[4.5]decan-3-yl)methyl)piperidin-4-yl)phenyl)amino)piperidine-2,6-dione] displayed a DC50 below 1 nM and a Dmax of 25 to 50%. At ER [2], this molecule had a DC50 below 1 nM and a maximal degradation (Dmax) of at least 75%. Further, the IC50 on CRBN/DDB1 was below 50 nM.
Regarding `O=C1CC[C@H](N2Cc3c(ccc4c3OC[C@H]3CN(C[C@@H]5COC6(CCN(c7ccc([C@@H]8c9ccc(O)cc9OC[C@@H]8c8ccccc8)cc7F)CC6)C5)CCN43)C2=O)C(=O)N1` (single isomer, unassigned) [Compound A157], at ER [1], the DC50 is below 1 nM and the Dmax is 50 to 75%. Moreover, on ER [2], the DC50 is below 1 nM and the maximal degradation (Dmax) is at least 75%. Moreover, on CRBN/DDB1, the IC50 was below 50 nM.
As to `COc1cc(N2CCC(CN3CCN4c5cc6c(cc5OC[C@H]4C3)C(=O)N(C3CCC(=O)NC3=O)C6)CC2)ccc1[C@@H]1c2ccc(O)cc2OC[C@@H]1c1ccccc1` (single isomer, unassigned) [Compound A84, 3-((R)-3-((1-(4-((3S,4R)-7-hydroxy-3-phenylchroman-4-yl)-3-methoxyphenyl)piperidin-4-yl)methyl)-8-oxo-1,2,3,4,4a,5,8,10-octahydro-9H-pyrazino[1′,2′:4,5][1,4]oxazino[2,3-f]isoindol-9-yl)piperidine-2,6-dione], the 50% degradation concentration (DC50) on ER [1] and at ER [2] was below 1 nM in each case. For the same molecule, the half-inhibitory concentration (IC50) at CRBN/DDB1 lay within 500 to 5000 nM.
`O=C1CC[C@H](NC(=O)c2ccc3c(n2)OC[C@H]2CN(C[C@@H]4COC5(CCN(c6ccc([C@@H]7c8ccc(O)cc8OC[C@@H]7c7ccccc7)cc6)CC5)C4)CCN32)C(=O)N1` [Compound A148, (R)-N-((S)-2,6-dioxopiperidin-3-yl)-3-(((R)-8-(4-((3S,4R)-7-hydroxy-3-phenylchroman-4-yl)phenyl)-1-oxa-8-azaspiro[4.5]decan-3-yl)methyl)-1,2,3,4,4a,5-hexahydropyrazino[1,2-d]pyrido[2,3-b][1,4]oxazine-8-carboxamide]: the 50% degradation concentration (DC50) at ER [1] and on ER [2] was below 1 nM each time. For the same molecule, the greatest degradation seen (Dmax) at ER [1] and at ER [2] was 50 to 75% throughout. Besides, the IC50 at CRBN/DDB1 lay within 500 to 5000 nM.
For `O=C1CC[C@@H](N2Cc3cc4c(cc3C2=O)OC[C@H]2CN(C[C@@H]3COC5(CCN(c6ccc([C@H]7c8ccc(O)cc8OC[C@H]7c7ccccc7)cc6F)CC5)C3)CCN42)C(=O)N1` [Compound A160, (R)-3-((R)-3-(((R)-8-(2-fluoro-4-((3R,4S)-7-hydroxy-3-phenylchroman-4-yl)phenyl)-1-oxa-8-azaspiro[4.5]decan-3-yl)methyl)-8-oxo-1,2,3,4,4a,5,8,10-octahydro-9H-pyrazino[1′,2′:4,5][1,4]oxazino[2,3-f]isoindol-9-yl)piperidine-2,6-dione], on ER [1], the DC50 lay in the range of 1 to 10 nM and the Dmax was below 25%. Moreover, at ER [2], the DC50 lay in the range of 1 to 10 nM and the Dmax is 25 to 50%. Also, the 50% inhibitory concentration (IC50) at CRBN/DDB1 was 500 to 5000 nM.
For `O=C1CCC(N2Cc3cc4c(cc3C2=O)OC[C@@H]2CN(CC3CCC5(CC3)CN(c3ccc([C@@H]6c7ccc(O)cc7OC[C@@H]6c6ccccc6)cc3)C5)CCN42)C(=O)N1` (stereo partly drawn) [Compound A63, 3-((S)-3-((2-(4-((3S,4R)-7-hydroxy-3-phenylchroman-4-yl)phenyl)-2-azaspiro[3.5]nonan-7-yl)methyl)-8-oxo-1,2,3,4,4a,5,8,10-octahydro-9H-pyrazino[1′,2′:4,5][1,4]oxazino[2,3-f]isoindol-9-yl)piperidine-2,6-dione], at ER [1], the DC50 was above 100 nM and the “MCF7 Dmax %” value is “D (“D”; <25%)”. Also, at ER [2], the DC50 is above 100 nM and the “T47D Dmax %” value is “D (“D”; <25%)”. At CRBN/DDB1, the IC50 was in the range of 500 to 5000 nM.
